How the values were obtained:
P2X7 [1] = target: T1, P2X7 (Homo sapiens (Human), UniProt Q99572); test: Radioligand binding, human P2X7-1321N1 cell membranes, tritiated A-804598 tracer; conditions: 1 hour at 4° C.
Protocol: (B) Radioligand binding: human or rat P2X7-1321N1 cells were collected and frozen @ −80° C. On the day of the experiment, cell membrane preparations were made according to standard published methods. […] The compound can be prepared as described in the literature. […] The assay was terminated by filtration (GF/B filters pre-soaked with 0.3% PEI) and washed with washing buffer (Tris-HCl 50 mM). The IC50 generated in the binding assay was corrected for tracer concentration and affinity of the tracer to derive at the affinity (Ki) of the test compounds.

P2X7 [2] = target: T1, P2X7; test: Ca2+ flux (FLIPR) in 1321N1 cells expressing recombinant human P2X7 channel; format: cell-based; conditions: 250 μM BzATP
Protocol: (§1) (A) Ca^2+ Flux: 1321N1 cells expressing the recombinant human, rat or mouse P2X7 channel was cultured in HyQ DME/(HyClone/Dulbecco's Modified Eagle Medium) high glucose supplemented with 10% Fetal Bovine Serum (FBS) and appropriate selection marker. Cells were seeded at a density of 25000 cells/well (96-well clear bottom black walled plates) in 100 μl volume/well. On the day of the experiment, cell plates were washed with assay buffer, containing (in mM): 130 NaCl, 2 KCl, 1 CaCl2, 1 MgCl2, 10 HEPES, 5 glucose; pH 7.40 and 300 mOs. After the wash, cells were loaded with the Calcium-4 dye (Molecular Device) and incubated in the dark for 60 minutes. Test compounds were prepared at 250× the test concentration in neat DMSO. Intermediate 96-well compound plates were prepared by transferring 1.2 μL of the compound into 300 μL of assay buffer. A further 3× dilution occurred when transferring 50 μL/well of the compound plate to 100 μL/well in the cell plate. Cells were incubated with test compounds and dye for 30 minutes. […] The fluorescence change was measured 180 seconds after adding the agonist.

rat P2X7 = rat P2X7 (Rattus norvegicus (Rat), UniProt Q64663); test: Ca2+ flux (FLIPR) in 1321N1 cells expressing recombinant rat P2X7 channel; format: cell-based; conditions: 250 μM BzATP
Chain of rat P2X7 (Q64663 whole entry): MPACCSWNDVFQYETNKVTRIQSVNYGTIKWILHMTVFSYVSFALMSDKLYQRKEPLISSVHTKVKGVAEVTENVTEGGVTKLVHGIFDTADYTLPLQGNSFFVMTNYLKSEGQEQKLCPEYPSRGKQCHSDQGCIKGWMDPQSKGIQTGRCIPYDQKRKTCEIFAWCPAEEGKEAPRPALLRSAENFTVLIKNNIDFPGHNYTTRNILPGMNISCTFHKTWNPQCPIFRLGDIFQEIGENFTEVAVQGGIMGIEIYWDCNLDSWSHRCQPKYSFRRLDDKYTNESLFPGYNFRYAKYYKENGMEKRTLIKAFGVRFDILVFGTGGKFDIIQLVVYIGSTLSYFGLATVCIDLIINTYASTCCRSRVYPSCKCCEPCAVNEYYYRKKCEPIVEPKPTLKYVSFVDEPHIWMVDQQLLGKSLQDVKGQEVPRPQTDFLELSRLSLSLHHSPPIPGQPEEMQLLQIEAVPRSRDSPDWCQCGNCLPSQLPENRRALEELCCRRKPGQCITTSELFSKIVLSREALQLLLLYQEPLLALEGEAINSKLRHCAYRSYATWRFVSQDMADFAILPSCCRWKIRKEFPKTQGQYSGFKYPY
Protocol: as §1

P2X7 [3] = target: T1, P2X7; test: P2X7 antagonism in human whole blood (LPS + Bz-ATP induced IL-1β release, ELISA); format: cell-based; conditions: 1 mM Bz-ATP
Protocol: Human blood was collected using a blood donor program. PBMCs were isolated from blood using a Ficoll density gradient technique. Briefly, blood was laid on Ficoll solution and centrifuged at RT for 20 minutes at 2000 rpm. The buffy layer (between red blood cells and plasma) was carefully collected by aspiration, washed with PBS and centrifuged again at 1500 rpm for 15 minutes. The resulting cell pellet was washed and plated on 96 well-plates for experiments. […] Lipopolysaccharide (LPS) (30 ng/ml) was added to each well and incubated for 1 hour. Test compounds were then added and incubated for 30 minutes. The P2X7 agonist, 2′(3′)-O-(4-benzoylbenzoyl) adenosine 5′-triphosphate (Bz-ATP) was then added at a final concentration of 0.5 mM (PBMC) or 1 mM (blood). Cells were incubated for an additional 1.5 hours. At that point, supernatant was collected and stored for IL-1β assay using manufacturer's protocol for enzyme-linked immunosorbent assay (ELISA). Data was expressed as percent control, where control is defined as the difference in IL-1β release in LPS+Bz-ATP samples and LPS only samples. Data was plotted as response (% control) versus concentration to generate IC50 values.

T1 sequence (Q99572 whole entry): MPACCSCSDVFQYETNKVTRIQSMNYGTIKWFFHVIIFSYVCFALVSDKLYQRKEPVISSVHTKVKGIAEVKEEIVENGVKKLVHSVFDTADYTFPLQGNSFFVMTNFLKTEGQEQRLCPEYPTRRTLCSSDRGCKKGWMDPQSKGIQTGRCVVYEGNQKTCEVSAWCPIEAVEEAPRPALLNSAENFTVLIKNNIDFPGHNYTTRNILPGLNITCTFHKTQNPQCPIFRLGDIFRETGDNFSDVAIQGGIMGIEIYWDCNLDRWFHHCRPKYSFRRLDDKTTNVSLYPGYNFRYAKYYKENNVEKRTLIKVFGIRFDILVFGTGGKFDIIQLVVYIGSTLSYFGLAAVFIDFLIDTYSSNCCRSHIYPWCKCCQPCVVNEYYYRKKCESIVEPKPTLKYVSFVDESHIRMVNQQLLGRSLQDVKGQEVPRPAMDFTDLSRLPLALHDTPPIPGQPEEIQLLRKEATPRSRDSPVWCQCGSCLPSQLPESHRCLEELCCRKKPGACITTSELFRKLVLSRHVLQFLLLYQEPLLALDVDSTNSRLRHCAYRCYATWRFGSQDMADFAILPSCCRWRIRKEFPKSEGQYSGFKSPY

Ki (P2X7 [1]) [nM] | IC50 (P2X7 [2]) [nM] | IC50 (rat P2X7) [nM] | IC50 (P2X7 [3]) [nM] | Compound
20 | 147 | > 10000 | 10000 | O=C1c2nnc(-c3ccccn3)n2CCN1Cc1cccc(Cl)c1Cl [Example 8, 7-(2,3-Dichlorobenzyl)-3-pyridin-2-yl-6,7-dihydro[1,2,4]triazolo[4,3-a]pyrazin-8(5H)-one]
10 | 50.2 | > 10000 | > 10000 | O=C1c2nnc(-c3ccccn3)n2CCN1Cc1cccc(C(F)(F)F)c1Cl [Example 9, 7-[2-Chloro-3-(trifluoromethyl)benzyl]-3-pyridin-2-yl-6,7-dihydro[1,2,4]triazolo[4,3-a]pyrazin-8(5H)-one]

— patent US9040534B2, “[1,2,4]triazolo[4,3-a]pyrazines as P2X7 modulators” (Janssen Pharmaceutica NV, priority 2013, dated 2015)
